The results in this text go back to patent US20170114049A1, “2,5-DISUBSTITUTED CYCLOPENTANE CARBOXYLIC ACIDS FOR THE TREATMENT OF RESPIRATORY TRACT DISEASES” (BAYER PHARMA AKTIENGESELLSCHAFT, priority 2014, published 2017).

Holding throughout (format): biochemical
The target in one test is T1, MMP-2 (Homo sapiens, UniProt P08253).
T1 construct: purchased R&D Systems 902-MP
T1 sequence (P08253 110-660): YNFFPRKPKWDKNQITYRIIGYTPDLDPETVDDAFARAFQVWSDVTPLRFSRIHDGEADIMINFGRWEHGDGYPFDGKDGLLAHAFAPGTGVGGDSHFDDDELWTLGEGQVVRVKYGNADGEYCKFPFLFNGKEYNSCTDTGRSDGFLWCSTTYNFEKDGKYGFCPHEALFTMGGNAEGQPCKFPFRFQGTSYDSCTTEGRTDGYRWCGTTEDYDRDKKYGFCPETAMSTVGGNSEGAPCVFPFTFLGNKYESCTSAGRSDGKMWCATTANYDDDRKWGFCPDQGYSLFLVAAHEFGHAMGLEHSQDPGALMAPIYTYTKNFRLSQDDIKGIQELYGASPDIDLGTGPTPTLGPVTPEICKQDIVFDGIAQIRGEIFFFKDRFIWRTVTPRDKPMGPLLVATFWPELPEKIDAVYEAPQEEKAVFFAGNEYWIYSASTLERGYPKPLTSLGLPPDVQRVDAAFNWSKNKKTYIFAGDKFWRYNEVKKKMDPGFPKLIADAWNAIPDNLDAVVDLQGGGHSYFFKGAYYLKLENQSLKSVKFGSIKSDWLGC
The test is described as follows: In vitro MMP-2 inhibition test. The text has this:
(§1) The MMP-mediated amidolytic cleavage of a suitable peptide substrate leads to an increase in fluorescent light here too. The signal intensity of the fluorescent light is directly proportional to the enzyme activity. The active concentration of a test compound at which half the enzyme is inhibited (50% signal intensity of the fluorescent light) is reported as the […].
(§2) Recombinant MMP-2 (from R&D Systems, 902-MP) is chemically activated in accordance with the manufacturer's instructions using APMA. 1 μl of the test compound to be analysed (as a solution in DMSO, suitable concentrations, for example, 1 nM to 30 μM) is pipetted into 24 μl of activated enzyme (final concentration, for example, 2 nM) in reaction buffer (50 mM Tris/HCl pH 7.5, 10 mM CaCl2, 150 mM NaCl, 0.05% Brij®-35) in a white 384-hole microtiter plate (MTP). The enzymatic reaction is started by adding the intramolecularly quenched Mca-Pro-Leu-Gly-Leu-Dpa(Dnp)-Ala-Arg-NH2 substrate (final concentration, for example, 10 μM; R&D Systems, ES-001), so as to result in a total test volume of 50 μl. The course of the MMP-2 reaction is measured by measuring the fluorescence intensity (excitation 320 nm, emission 410 nm) over a suitable period of time (for example over 120 min at a temperature of 32° C.).

In another test the target is T2, MMP-8 (Homo sapiens, UniProt P22894).
T2 construct: purchased R&D Systems 908-MP
The test is described as follows: In vitro MMP-8 inhibition test.
From the text: as §1
as §2, with “Recombinant MMP-8” for “Recombinant MMP-2”, “Systems, 908-MP)” for “Systems, 902-MP)”, “example, 0.5” for “example, 2”, “the MMP-8” for “the MMP-2”

In a further test the target is T3, MMP-10 (Homo sapiens, UniProt P09238).
T3 construct: purchased R&D Systems 910-MP
The test is described as follows: In vitro MMP-10 inhibition test.
From the text: as §1
as §2, with “MMP-10” for “MMP-2”, “910-MP)” for “902-MP)”, “Mca-Arg-Pro-Lys-Pro-Val-Glu-Nval-Trp-Arg-Lys(Dnp)-NH2” for “Mca-Pro-Leu-Gly-Leu-Dpa(Dnp)-Ala-Arg-NH2”, “ES-002),” for “ES-001),”

The next test deals with T4, mouse MMP-3 (Mus musculus, UniProt P28862).
T4 construct: purchased R&D Systems 548-MP
Put plainly: In vitro mouse MMP-3 inhibition test.

For a further test, the target named is T5, mouse MMP-7 (Mus musculus, UniProt Q10738).
T5 construct: purchased R&D Systems 2967-MP
T5 sequence (Q10738 95-264): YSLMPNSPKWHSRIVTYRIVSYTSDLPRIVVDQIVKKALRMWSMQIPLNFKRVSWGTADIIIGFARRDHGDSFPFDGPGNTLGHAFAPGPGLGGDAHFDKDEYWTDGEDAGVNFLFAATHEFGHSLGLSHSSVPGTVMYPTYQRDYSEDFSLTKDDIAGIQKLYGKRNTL
Put plainly: In vitro mouse MMP-7 inhibition test.
From the text: as §1
Recombinant mouse MMP-7 (from R&D Systems, 2967-MP) is chemically activated in accordance with the manufacturer's instructions using APMA. 1 μl of the test compound to be analysed (as a solution in DMSO, suitable concentrations, for example, 1 nM to 30 μM) is pipetted into 24 μl of activated enzyme (final concentration, for example, 0.5 nM) in reaction buffer (50 mM Tris/HCl pH 7.5, 10 mM CaCl2, 150 mM NaCl, 0.05% Brij®-35) in a white 384-hole microtiter plate (MTP). The enzymatic reaction is started by adding the intramolecularly quenched Mca-Lys-Pro-Leu-Gly-Leu-Dpa(Dnp)-Ala-Arg-NH2 substrate (final concentration, for example, 5 μM; R&D Systems, ES-010), so as to result in a total test volume of 50 μl. The course of the MMP-7 reaction is measured by measuring the fluorescence intensity (excitation 320 nm, emission 410 nm) over a suitable period of time (for example over 120 min at a temperature of 32° C.).

T4 sequence (P28862 100-477): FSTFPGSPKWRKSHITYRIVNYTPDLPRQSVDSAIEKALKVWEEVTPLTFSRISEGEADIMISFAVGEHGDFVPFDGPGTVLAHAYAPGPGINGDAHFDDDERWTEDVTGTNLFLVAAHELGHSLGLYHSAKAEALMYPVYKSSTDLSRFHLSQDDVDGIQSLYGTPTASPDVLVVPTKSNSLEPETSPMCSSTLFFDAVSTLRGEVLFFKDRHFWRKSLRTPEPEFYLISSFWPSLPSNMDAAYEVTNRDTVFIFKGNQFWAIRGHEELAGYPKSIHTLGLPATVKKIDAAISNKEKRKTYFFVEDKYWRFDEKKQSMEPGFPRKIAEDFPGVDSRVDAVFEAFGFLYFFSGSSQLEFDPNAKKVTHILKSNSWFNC
T3 sequence (P09238 99-476): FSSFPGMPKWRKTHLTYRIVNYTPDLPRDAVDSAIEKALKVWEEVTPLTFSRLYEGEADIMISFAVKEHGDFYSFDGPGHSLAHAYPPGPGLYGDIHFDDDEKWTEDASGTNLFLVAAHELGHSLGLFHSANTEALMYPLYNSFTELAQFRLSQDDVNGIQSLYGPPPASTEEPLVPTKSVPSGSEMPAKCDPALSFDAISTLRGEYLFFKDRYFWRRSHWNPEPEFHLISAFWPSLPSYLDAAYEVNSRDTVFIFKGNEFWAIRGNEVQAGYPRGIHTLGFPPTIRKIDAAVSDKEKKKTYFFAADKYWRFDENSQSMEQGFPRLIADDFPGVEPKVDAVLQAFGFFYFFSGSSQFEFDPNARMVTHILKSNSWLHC
T2 sequence (P22894 101-467): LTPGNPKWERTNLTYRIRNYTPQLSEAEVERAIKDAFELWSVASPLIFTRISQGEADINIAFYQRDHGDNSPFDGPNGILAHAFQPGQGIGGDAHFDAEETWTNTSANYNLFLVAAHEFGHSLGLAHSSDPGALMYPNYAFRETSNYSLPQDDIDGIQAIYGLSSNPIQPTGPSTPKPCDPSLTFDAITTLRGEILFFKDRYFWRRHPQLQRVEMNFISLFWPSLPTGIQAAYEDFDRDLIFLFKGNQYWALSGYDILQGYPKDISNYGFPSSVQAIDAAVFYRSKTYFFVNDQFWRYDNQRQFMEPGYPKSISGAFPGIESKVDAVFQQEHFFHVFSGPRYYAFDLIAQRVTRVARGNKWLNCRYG

As for `Cc1ccc2nnn(C[C@@H]3CC[C@H](C(=O)c4ccc(OCCC5CCOCC5)cc4)[C@H]3C(=O)O)c(=O)c2c1` (racemic) [Example 19, (+/−)-(1RS,2SR,5RS)-2-[(6-Methyl-4-oxo-1,2,3-benzotriazin-3(4H)-yl)methyl]-5-{4-[2-(letrahydro-2H-pyran-4-yl)ethoxy]benzoyl}cyclopentanecarboxylic acid], the IC50 (usually the concentration at which inhibition is half-maximal) turned out to be 930 nM against MMP-2; 28 nM against MMP-8; 58 nM on MMP-10; 3100 nM against mouse MMP-3; 630 nM against mouse MMP-7.
The matching figures for `O=C(O)[C@H]1[C@H](Cn2nnc3ccccc3c2=O)CC[C@@H]1C(=O)c1ccc(OCCC2CCOCC2)cc1` (stereo in doubt) [Example 4, (+/−)-(1RS,2SR,5RS)-2-[(4-Oxo-1,2,3-benzotriazin-3(4H)-yl)methyl]-5-{4-[2-(tetrahydro-2H-pyran-4-yl)ethoxy]benzoyl}cyclopentanecarboxylic acid]: 360 nM, 98 nM, 170 nM, 4000 nM and 1400 nM.
Turning to `O=C(O)[C@H]1[C@H](Cn2nnc3ccc(C(F)(F)F)cc3c2=O)CC[C@@H]1C(=O)c1ccc(OCC2CCOCC2)cc1` (racemic) [Example 7, (+/−)-(1RS,2SR,5RS)-2-{[4-Oxo-6-(trifluoromethyl)-1,2,3-benzotriazin-3(4H)-yl]methyl}-5-[4-(tetrahydro-2H-pyran-4-ylmethoxy)benzoyl]cyclopentanecarboxylic acid], the IC50 against MMP-2 amounted to 380 nM; at MMP-8 it was 1 nM; on MMP-10, 11000 nM.
Turning to `O=C(O)[C@@H]1[C@@H](Cn2nnc3ccc(C(F)(F)F)cc3c2=O)CC[C@H]1C(=O)c1ccc(OCCC2CCOCC2)cc1` (single isomer, unassigned) [Example 11, (+)-(1RS,2SR,5RS)-2-{[4-Oxo-6-(trifluoromethyl)-1,2,3-benzotriazin-3(4H)-yl]methyl}-5-{4-[2-(tetrahydro-2H-pyran-4-yl)ethoxy]benzoyl}cyclopentanecarboxylic acid], the IC50 at MMP-2 turned out to be 510 nM; on MMP-8, 5.6 nM; on MMP-10, 18 nM; against mouse MMP-3 it was 620 nM; against mouse MMP-7, 210 nM.
The matching figures for `O=C(O)[C@H]1[C@H](Cn2nnc3ccccc3c2=O)CC[C@@H]1C(=O)c1ccc(OCC2CCOCC2)cc1` (stereo in doubt) [Example 1, (+/−)-(1RS,2SR,5RS)-2-[(4-Oxo-1,2,3-benzotriazin-3(4H)-yl)methyl]-5-[4-(tetrahydro-2H-pyran-4-ylmethoxy)benzoyl]cyclopentanecarboxylic acid]: 140 nM, 11 nM, 120 nM, 570 nM and 85 nM.
In the case of “(+)-(1RS,2SR,5RS)-2-{[4-Oxo-6-(trifluoromethyl)-1,2,3-benzotriazin-3(4H)-yl]methyl}-5-[4-(tetra-hydro-2H-pyran-4-ylmethoxy)benzoyl]cyclopentanecarboxylic acid [Example 8]”, the IC50 on MMP-2 came to 140 nM; at MMP-8 it was 0.6 nM; on MMP-10, 12 nM.
The matching figures for `O=C(O)[C@@H]1[C@@H](Cn2nnc3ccc(C(F)(F)F)cc3c2=O)CC[C@H]1C(=O)c1ccc(SCC2CCOCC2)cc1` (single isomer, unassigned) [Example 15, (+)-(1RS,2SR,5RS)-2-{[4-Oxo-6-(trifluoromethyl)-1,2,3-benzotriazin-3(4H)-yl]methyl}-5-{4-[(tetrahydro-2H-pyran-4-ylmethyl)sulphanyl]benzoyl}cyclopentanecarboxylic acid]: 330 nM, 0.9 nM and 9 nM.
